Converted amounts (≈) assume the structure as drawn. Where two headings read alike, the source gives them in different places.
Legend:
K. oxytoca GN10650 = assay: agar plate dilution method, MIC against K. oxytoca GN10650; type: cell-based; conditions: Klebsiella oxytoca; K. oxytoca GN10650 (lactamase-producing strain); 10^6 CFU/ml, 37° C., 16 hours; read-out: Minimum Inhibitory Concentration (MIC)
Protocol: (§1) The in vitro antibacterial activities of the compounds of the present invention against various microorganisms, were measured by the following agar plate dilution method. One platinum loopfull of each test microorganism incubated overnight in Mueller Hinton broth, was inoculated to Mueller Hinton agar (inoculum size: 10^6 CFU/ml) Such culture media containing various antibiotics in various concentrations were prepared After incubation at 37° C. for 16 hours, the minimum inhibitory concentrations (MIC: μg/ml) were measured. As comparative compounds, cefotaxime, oeftazidime and the compounds disclosed in Example 2 of Japanese Unexamined Patent Publication No. 215690/1985 e.g. sodium 7-[2-(2-aminothiazol-4-yl)-2-ethoxyiminoacetamido]-3-(1-carboxylatemethylpyridinio-4-yl)thiomethyl-3-cephem-4-carboxylate (hereinafter referred to simply as "Reference Example A") were employed.

S. aureus 209P NIHJ-JC1 = assay: agar plate dilution method, MIC against S. aureus 209P NIHJ-JC1; type: cell-based; conditions: Staphylococcus aureus, read-out: Minimum Inhibitory Concentration (MIC)
Protocol: as §1

Ps. cepacia 23 = assay: agar plate dilution method, MIC against Ps. cepacia 23; type: cell-based, Pseudomonas cepacia; conditions: Burkholderia cepacia, 23, 16 h, read-out: Minimum Inhibitory Concentration (MIC)
Protocol: as §1

K. pneumoniae No. 42 = assay: agar plate dilution method, MIC against K. pneumoniae No. 42; type: cell-based; conditions: Klebsiella pneumoniae; K. pneumoniae No. 42 (lactamase-producing strain); 10^6 CFU/ml, 37° C., 16 hours; read-out: Minimum Inhibitory Concentration (MIC)
Protocol: as §1

M. luteus ATCC9341 = assay: agar plate dilution method, MIC against M. luteus ATCC9341; type: cell-based; conditions: Micrococcus luteus, read-out: Minimum Inhibitory Concentration (MIC)
Protocol: as §1

E. coli GN5482 = assay: agar plate dilution method, MIC against E. coli GN5482; type: cell-based; conditions: Escherichia coli; E. coli GN5482 (lactamase-producing strain); 10^6 CFU/ml, 37° C., 16 hours; read-out: Minimum Inhibitory Concentration (MIC)
Protocol: as §1

Ps. maltophilia GN 12873 = assay: agar plate dilution method, MIC against Ps. maltophilia GN 12873; type: cell-based, Pseudomonas maltophilia; conditions: Stenotrophomonas maltophilia, GN12873; Ps. maltophilia GN 12873 (lactamase-producing strain); 10^6 CFU/ml, 37° C., 16 hours; read-out: Minimum Inhibitory Concentration (MIC)
Protocol: as §1

M. morganii GN5407 = assay: agar plate dilution method, MIC against M. morganii GN5407; type: cell-based; conditions: Morganella morganii; M. morganii GN5407 (lactamase-producing strain); 10^6 CFU/ml, 37° C., 16 hours; read-out: Minimum Inhibitory Concentration (MIC)
Protocol: as §1

S. epidermidis IAM12012 = assay: agar plate dilution method, MIC against S. epidermidis IAM12012; type: cell-based; conditions: Staphylococcus epidermidis, read-out: Minimum Inhibitory Concentration (MIC)
Protocol: as §1

E. cloacae Nek 39 = assay: agar plate dilution method, MIC against E. cloacae Nek 39; type: cell-based; conditions: Enterobacter cloacae, NEK39; E. cloacae Nek 39 (lactamase-producing strain); 10^6 CFU/ml, 37° C., 16 hours; read-out: Minimum Inhibitory Concentration (MIC)
Protocol: as §1

E. coli NIHJ JC2 = assay: agar plate dilution method, MIC against E. coli NIHJ JC2; type: cell-based; conditions: Escherichia coli, read-out: Minimum Inhibitory Concentration (MIC)
Protocol: as §1

S. aureus BB5703 = assay: agar plate dilution method, MIC against S. aureus BB5703; type: cell-based; conditions: Staphylococcus aureus, BB5703, 16 h, read-out: Minimum Inhibitory Concentration (MIC)
Protocol: as §1

E. coli CSH(RE45) = assay: agar plate dilution method, MIC against E. coli CSH(RE45); type: cell-based; conditions: Escherichia coli, 16 h, read-out: Minimum Inhibitory Concentration (MIC)
Protocol: as §1

S. marcescens IAM 1184 = assay: agar plate dilution method, MIC against S. marcescens IAM 1184; type: cell-based; conditions: Serratia marcescens, read-out: Minimum Inhibitory Concentration (MIC)
Protocol: as §1

E. coli CSH2 (RK1) = assay: agar plate dilution method, MIC against E. coli CSH2 (RK1); type: cell-based; conditions: Escherichia coli, 16 h, read-out: Minimum Inhibitory Concentration (MIC)
Protocol: as §1

E. cloacae 963 = assay: agar plate dilution method, MIC against E. cloacae 963; type: cell-based; conditions: read-out: Minimum Inhibitory Concentration (MIC)
Protocol: as §1

P. vulgaris No. 33 = assay: agar plate dilution method, MIC against P. vulgaris No. 33; type: cell-based; conditions: Proteus vulgaris; P. vulgaris No. 33 (lactamase-producing strain); 10^6 CFU/ml, 37° C., 16 hours; read-out: Minimum Inhibitory Concentration (MIC)
Protocol: as §1

Ps. aeruginosa IFO3445 = assay: agar plate dilution method, MIC against Ps. aeruginosa IFO3445; type: cell-based; conditions: Pseudomonas aeruginosa, read-out: Minimum Inhibitory Concentration (MIC)
Protocol: as §1

C. freundii GN346 = assay: agar plate dilution method, MIC against C. freundii GN346; type: cell-based; conditions: Citrobacter freundii; C. freundii GN346 (lactamase-producing strain); 10^6 CFU/ml, 37° C., 16 hours; read-out: Minimum Inhibitory Concentration (MIC)
Protocol: as §1

S. aureus JS1 = assay: agar plate dilution method, MIC against S. aureus JS1; type: cell-based; conditions: Staphylococcus aureus; S. aureus JS1 (methicilline resistant; lactamase-producing strain); 10^6 CFU/ml, 37° C., 16 hours; read-out: Minimum Inhibitory Concentration (MIC)
Protocol: as §1

Ps. aeruginosa AK 109 = assay: agar plate dilution method, MIC against Ps. aeruginosa AK 109; type: cell-based; conditions: Pseudomonas aeruginosa, read-out: Minimum Inhibitory Concentration (MIC)
Protocol: as §1

K. pneumoniae PCI-602 = assay: agar plate dilution method, MIC against K. pneumoniae PCI-602; type: cell-based; conditions: Klebsiella pneumoniae, read-out: Minimum Inhibitory Concentration (MIC)
Protocol: as §1

C. freundii GN346/16 = assay: agar plate dilution method, MIC against C. freundii GN346/16; type: cell-based; conditions: Citrobacter freundii; C. freundii GN346/16; 10^6 CFU/ml, 37° C., 16 hours; read-out: Minimum Inhibitory Concentration (MIC)
Protocol: as §1

Ps. aeruginosa AKR17 = assay: agar plate dilution method, MIC against Ps. aeruginosa AKR17; type: cell-based; conditions: Pseudomonas aeruginosa; Ps. aeruginosa AKR17; 10^6 CFU/ml, 37° C., 16 hours; read-out: Minimum Inhibitory Concentration (MIC)
Protocol: as §1

S. marcescens No. 16-2 = assay: agar plate dilution method, MIC against S. marcescens No. 16-2; type: cell-based; conditions: Serratia marcescens, NO.162, 16 h, read-out: Minimum Inhibitory Concentration (MIC)
Protocol: as §1

A. calcoaceticus No. 4 = assay: agar plate dilution method, MIC against A. calcoaceticus No. 4; type: cell-based; conditions: Acinetobacter calcoaceticus; A. calcoaceticus No. 4; 10^6 CFU/ml, 37° C., 16 hours; read-out: Minimum Inhibitory Concentration (MIC)
Protocol: as §1

P. vulgaris HX-19 = assay: agar plate dilution method, MIC against P. vulgaris HX-19; type: cell-based; conditions: Proteus vulgaris, HX19, 16 h, read-out: Minimum Inhibitory Concentration (MIC)
Protocol: as §1

Compound | MIC (K. oxytoca GN10650) | MIC (Ps. cepacia 23) | MIC (K. pneumoniae No. 42) | MIC (E. coli GN5482) | MIC (Ps. maltophilia GN 12873) | MIC (M. morganii GN5407) | MIC (E. cloacae Nek 39) | MIC (S. aureus BB5703) | MIC (E. coli CSH(RE45)) | MIC (E. coli CSH2 (RK1)) | MIC (P. vulgaris No. 33) | MIC (C. freundii GN346) | MIC (S. aureus JS1) | MIC (C. freundii GN346/16) | MIC (Ps. aeruginosa AKR17) | MIC (S. marcescens No. 16-2) | MIC (A. calcoaceticus No. 4) | MIC (P. vulgaris HX-19) | further results
Nc1nc(/C(=N/OCc2ccccc2)C(=O)NC2C(=O)N3C(C(=O)[O-])=C(CSc4cc[n+](CC(=O)O)cc4)CSC23)cs1 (stereo not drawn) [Example 2, monosodium 7-[2-(2-aminithiazol-4-yl)-2-benzyloxyiminoacetamide]-3-(1-caboxylatemethylpyridinio-4-yl)thiomethyl-3-cephem-4-carboxylate (syn-isomer)] | 12.5 µg/mL | 12.5 µg/mL | 1.56 µg/mL | 0.78 µg/mL | > 100 µg/mL | 1.56 µg/mL | 6.25 µg/mL | 1.56 µg/mL | 0.2 µg/mL | 0.2 µg/mL | 1.56 µg/mL | 25 µg/mL | 50 µg/mL | 0.78 µg/mL | > 100 µg/mL | 12.5 µg/mL | 25 µg/mL | < 0.006 µg/mL | MIC (S. aureus 209P NIHJ-JC1; S. aureus 209P NIHJ-JC1, 10^6 CFU/ml, Mueller Hinton agar, 37° C., 16 hours): 0.39 µg/mL; MIC (M. luteus ATCC9341; ATCC9341, 16 h): 0.025 µg/mL; MIC (S. epidermidis IAM12012; S. epidermidis IAM12012, 10^6 CFU/ml, 37° C., 16 hours): 0.2 µg/mL; MIC (E. coli NIHJ JC2; NIHJJC2, 16 h): 1.56 µg/mL; MIC (S. marcescens IAM 1184; IAM1184, 16 h): 1.56 µg/mL; MIC (E. cloacae 963; Enterobacter cloacae, 963, 16 h): 1.56 µg/mL; MIC (Ps. aeruginosa IFO3445; Ps. aeruginosa IFO3445, 10^6 CFU/ml, 37° C., 16 hours): 25 µg/mL; MIC (Ps. aeruginosa AK 109; AK109, Ps. aeruginosa AK 109, 10^6 CFU/ml, 37° C., 16 hours): 25 µg/mL; MIC (K. pneumoniae PCI-602; PCI602, K. pneumoniae PCI-602, 10^6 CFU/ml, 37° C., 16 hours): 0.0125 µg/mL
CO/N=C(\C(=O)N[C@@H]1C(=O)N2C(C(=O)O)=C(COC(C)=O)CS[C@H]12)c1csc(N)n1 [Cefotaxime, cefotaxime, reference compound] | 0.39 µg/mL (≈ 0.856 µM) | 6.25 µg/mL (≈ 13.7 µM) | 0.05 µg/mL (≈ 0.11 µM) | 0.39 µg/mL (≈ 0.856 µM) | > 100 µg/mL | 0.1 µg/mL (≈ 0.22 µM) | 3.12 µg/mL (≈ 6.85 µM) | 3.12 µg/mL (≈ 6.85 µM) | 0.1 µg/mL (≈ 0.22 µM) | 0.025 µg/mL (≈ 0.0549 µM) | 0.025 µg/mL (≈ 0.0549 µM) | 12.5 µg/mL (≈ 27.4 µM) | 25 µg/mL (≈ 54.9 µM) | 0.1 µg/mL (≈ 0.22 µM) | > 100 µg/mL | 12.5 µg/mL (≈ 27.4 µM) | 25 µg/mL (≈ 54.9 µM) | < 0.006 µg/mL | MIC (S. aureus 209P NIHJ-JC1; 16 h): 1.56 µg/mL (≈ 3.43 µM); MIC (M. luteus ATCC9341; M. luteus ATCC9341, 10^6 CFU/ml, 37° C., 16 hours): 0.1 µg/mL (≈ 0.22 µM); MIC (S. epidermidis IAM12012; IAM12012, 16 h): 1.56 µg/mL (≈ 3.43 µM); MIC (E. coli NIHJ JC2; NIHJJC2, E. coli NIHJ JC2, 10^6 CFU/ml, 37° C., 16 hours): 0.05 µg/mL (≈ 0.11 µM); MIC (S. marcescens IAM 1184; IAM1184, S. marcescens IAM 1184, 10^6 CFU/ml, 37° C., 16 hours): 0.1 µg/mL (≈ 0.22 µM); MIC (E. cloacae 963; Enterobacter cloacae, E. cloacae 963, 10^6 CFU/ml, 37° C., 16 hours): 0.1 µg/mL (≈ 0.22 µM); MIC (Ps. aeruginosa IFO3445; IFO3445, 16 h): 12.5 µg/mL (≈ 27.4 µM); MIC (Ps. aeruginosa AK 109; AK109, 16 h): 12.5 µg/mL (≈ 27.4 µM); MIC (K. pneumoniae PCI-602; PCI602, 16 h): < 0.006 µg/mL

— US4988687A, “Cephalosporin derivatives, and antibacterial agents” (priority 1986, dated 1991)
